Source: patent publication US20110251281A1, “Composite Material Comprising High-Molecular-Weight Matrix and Low-Molecular-Weight Organic Compound and Process For Producing Same” (NATIONAL INSTITUTE FOR MATERIALS SCIENCE, priority 2008, published 2011)

Test: Am80 release from alkali-treated collagen composite materials in PBS, HPLC
Format: physicochemical
Conditions: PBS pH7.4, 37° C., in one day
Description: The high-molecular-weight matrices containing the low-molecular-weight organic compound prepared in 2-1 mentioned above were dried in a desiccator and then heated in an oven at 80° C. for 10 min. These composite materials were used as samples for HPLC.
The thus produced high-molecular-weight matrices were each transferred in a 250 mL polyethylene container, and 200 mL of PBS (pH7.4) was added thereto. These were heated in an incubator at 37° C. The supernatant thereof was sampled in a time course manner, and 50 μL each was assayed by HPLC.
In the HPLC method, the Nacalai Tesque COSMOSIL Packed Column (Size: 4.6 I.D.×150 mm; Type: 5C18-AR II ATERS) was used as the column, and a 5% HOAc/CH3CN=35/65 (v/v) aqueous solution was used as the eluent. The flow rate was 1.00 mL/min, and the column temperature was 40.0° C. The detection was conducted by UV-visible spectroscopy.
The elusion amount was calculated based on a calibration curve that had been formed in advance. Three kinds of drug/PBS (pH7.4) solutions were prepared within a concentration range from 1.14 μM to 569 μM, and assayed by HPLC. The condition for this assay was the same as the above. […]
In the HPLC method, the Am80 elusion amount was calculated under the same conditions as for the above-mentioned method.

Compound | Am80 released
CC1(C)CCC(C)(C)c2cc(NC(=O)c3ccc(C(=O)O)cc3)ccc21 [Am80, Tamibarotene] | 49%

Test: Composite formation of AlGltn/TSC matrix containing amino acid derivative after immersion in water
Format: physicochemical
Conditions: 100 mM amino acid derivative, 20 mM TSC, water at 4° C. for one day
Description: High-molecular-weight matrices formed from alkali-treated gelatin (AlGltn; derived from pig bone) and TSC (citric acid derivative), in which an amino acid derivative was contained, were prepared. By immersing in water, DMSO was replaced by water and the amino acid was precipitated. The behavior of the high-molecular-weight matrices after the precipitation was observed by each type and concentration of the amino acid.
400 μl of a DMSO solution containing 15 w/v % AlGltn and 10% lactic acid was added with an amino acid derivative to give 100 mM in a 2 ml tube. The mixture was agitated and degassed. 100 μl of a 10% lactic acid-containing DMSO was added with TSC at 20 mM (4.84 mg) and agitated. The solution made by addition of the amino acid derivative to the AlGltn/10% lactic acid-containing DMSO solution, agitation, and degasification, was added with the TSC/10% lactic acid-containing DMSO solution. The mixture was agitated for 30 seconds and then degassed for 30 seconds. After leaving still for one day, the resulting high-molecular-weight matrix was taken out and immersed in water at 4° C. for one day. The gel was taken out and its behavior was observed.

Compound | Composite formation
CC(=O)NC(Cc1c[nH]c2ccccc12)C(N)=O (stereo not shown) [AcTrpNH2] | Absent
CC(=O)N[C@@H](Cc1ccc(O)cc1)C(N)=O [AcTyrNH2] | Absent
CC[C@H](C)[C@H](NC(=O)OCC1c2ccccc2-c2ccccc21)C(=O)O [FmocIleOH] | Present
O=C(N[C@@H](Cc1ccccc1)C(=O)O)OCC1c2ccccc2-c2ccccc21 [FmocPheOH] | Present
CC(C)(C)OC[C@H](NC(=O)OCC1c2ccccc2-c2ccccc21)C(=O)O [FmocSer(tBu)OH] | Present
O=C(N[C@@H](Cc1c[nH]c2ccccc12)C(=O)O)OCC1c2ccccc2-c2ccccc21 [FmocTrpOH] | Present
